In publication PMC10796436, “Peptidyl nitroalkene inhibitors of main protease rationalized by computational and crystallographic investigations as antivirals against SARS-CoV-2” (Communications Chemistry, 2024):
Where “and” joins values, the source holds several entries; their conditions need not be identical. Equal entries are not always repeated.

Columns and labels:
[1] = target: human matriptase (MT-SP1) (Homo sapiens, UniProt Q9Y5Y6); experiment: Matriptase inhibition, fluorometric assay; type: biochemical; details: 20 μM
SARS-CoV-2 = experiment: microbe, parasite or virus in culture; type: cell-based; details: for virus titer Mean (%): mean of Exp.1-3; for virus titer (%) of conc 0 / virus titer (pfu/ml): single experiments
[2] = target: Zika Virus NS2B/NS3 (bZiPro) (Zika virus, UniProt A0A024B7W1); experiment: Zika virus protease inhibition, fluorometric assay; type: biochemical; details: 20 μM
cathepsin L (CatL) = target: T1, cathepsin L (CatL) (Homo sapiens, UniProt P07711); experiment: Cathepsin L inhibition, fluorometric assay; type: biochemical
T1 construct: purchased Calbiochem (Merck Millipore)

SARS-CoV-2 M^pro [3] = target: T2, SARS-CoV-2 M^pro (Severe acute respiratory syndrome coronavirus 2, UniProt P0DTD1); experiment: biochemical; details: M^pro from pMal-M^pro vector
M^pro = M^pro (Severe acute respiratory syndrome coronavirus 2, UniProt P0DTD1); experiment: biochemical; type: binding
SARS-CoV-2 M^pro [4] = target: T2, SARS-CoV-2 M^pro; experiment: Mpro FRET inhibition, continuous fluorometric assay (Fluorolog-3), enzyme from pET21-M^pro vector; type: biochemical; details: read-out: Ki (μM)^b

T1 sequence (P07711 114-288 limits assumed): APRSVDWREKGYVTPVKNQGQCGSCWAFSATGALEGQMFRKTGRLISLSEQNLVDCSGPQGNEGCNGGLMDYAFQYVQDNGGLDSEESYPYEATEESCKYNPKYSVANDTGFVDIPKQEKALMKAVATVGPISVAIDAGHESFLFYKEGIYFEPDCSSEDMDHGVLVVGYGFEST
T1 sequence (P07711 292-333 limits assumed): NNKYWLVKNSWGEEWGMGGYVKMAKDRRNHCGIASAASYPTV
Zika Virus NS2B/NS3 (bZiPro), sequence (A0A024B7W1 1425-1464): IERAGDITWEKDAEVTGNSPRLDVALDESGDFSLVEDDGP
Zika Virus NS2B/NS3 (bZiPro), sequence (A0A024B7W1 1503-1680): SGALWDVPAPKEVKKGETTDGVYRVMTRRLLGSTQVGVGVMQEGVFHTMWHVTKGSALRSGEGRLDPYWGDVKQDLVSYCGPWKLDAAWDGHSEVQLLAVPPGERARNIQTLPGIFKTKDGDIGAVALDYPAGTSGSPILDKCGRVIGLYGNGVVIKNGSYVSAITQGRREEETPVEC
human matriptase (MT-SP1), sequence (Q9Y5Y6 615-855 limits assumed, other chains not shown): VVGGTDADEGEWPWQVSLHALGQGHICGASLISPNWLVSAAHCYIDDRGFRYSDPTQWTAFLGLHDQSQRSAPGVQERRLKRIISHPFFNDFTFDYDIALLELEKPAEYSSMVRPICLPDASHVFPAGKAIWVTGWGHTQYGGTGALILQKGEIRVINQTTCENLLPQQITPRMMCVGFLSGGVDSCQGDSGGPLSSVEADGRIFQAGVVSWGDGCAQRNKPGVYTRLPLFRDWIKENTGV

For CC(C)C[C@H](NC(=O)OCc1ccccc1)C(=O)N[C@H](/C=C/[N+](=O)[O-])C[C@@H]1CCNC1=O [FGA147], the MT-SP1 [1] was “n.i. (no inhibition (<10%) was observed at a concentration of 20 μM)”, the EC50 (SARS-CoV-2; Severe acute respiratory syndrome coronavirus 2, 24 h, Huh-7-ACE2, 24h p.t., MOI=0.1) was 1900 nM and the “virus titer Mean (%)” value (SARS-CoV-2; conc 0.1) was 153.333%. For the same compound, the “virus titer (%) of conc 0” value (SARS-CoV-2; conc 0.1) was 160% and 180% and 120%, the “virus titer (pfu/ml)” value (SARS-CoV-2; conc 0.1) was 1600000 pfu/ml and 1800000 pfu/ml and 2400000 pfu/ml and the “virus titer Mean (%)” value (SARS-CoV-2; conc 0.5) was 83.3333%. The “virus titer (pfu/ml)” value (SARS-CoV-2; conc 0.5) was 1000000 pfu/ml and 1200000 pfu/ml and 600000 pfu/ml, the “virus titer Mean (%)” value (SARS-CoV-2; conc 1) was 85% and the “virus titer Mean (%)” value (SARS-CoV-2; conc 5) was 0.5017%. The “virus titer (%) of conc 0” value (SARS-CoV-2; conc 5) was 1% and 0.365% and 0.14%, the “virus titer Mean (%)” value (SARS-CoV-2; conc 10) was 0.08% and the “virus titer (%) of conc 0” value (SARS-CoV-2; conc 10) was 0.04% and 0.15% and 0.05%. For the same compound, the “virus titer Mean (%)” value (SARS-CoV-2; conc 50) was 0.025%, the “virus titer (%) of conc 0” value (SARS-CoV-2; conc 50) was 0.06% and 0.012% and 0.003% and the “virus titer Mean (%)” value (SARS-CoV-2; conc 100) was 0.01767%. The “virus titer (%) of conc 0” value (SARS-CoV-2; conc 100) was 0.02% and 0.026% and 0.007%, the “virus titer (pfu/ml)” value (SARS-CoV-2; conc 100) was 200 pfu/ml and 260 pfu/ml and 140 pfu/ml and the bZiPro [2] was “n.i. (no inhibition (<10%) was observed at a concentration of 20 μM)”. The Ki (cathepsin L (CatL)) was 1990 ± 107 nM, the Ki (SARS-CoV-2 M^pro [3]) was 2.18 ± 0.19 µM and the “Tm of M^pro” value (M^pro; 25 µM) was 46.2 ± 0.1 °C. The “change of Tm of M^pro” value (M^pro; 25 µM) was −3.0 ± 0.1 °C, the ΔTm at 25 µM (M^pro; 25 µM, read-out: DTm (°C)) was -3 °C and the “Tm of M^pro” value (M^pro; 100 μM) was 45.0 ± 0.2 °C. The “change of Tm of M^pro” value (M^pro; 100 μM) was −4.2 ± 0.2 °C, the Fraction unfolded (M^pro; 25 mM, 21.5 °C) was 0.04278 and the Fraction unfolded (M^pro; 25 mM, 22 °C) was 0.07148. It also gave a Fraction unfolded (M^pro; 25 mM, 22.5 °C) of 0.01751, a Fraction unfolded (M^pro; 25 mM, 23 °C) of -0.05389 and a Fraction unfolded (M^pro; 25 mM, 23.5 °C) of -0.01968. For the same compound, the Fraction unfolded (M^pro; 25 mM, 24 °C) was 0.09885, the Fraction unfolded (M^pro; 25 mM, 24.5 °C) was 0.01751 and the Fraction unfolded (M^pro; 25 mM, 25 °C) was 0.01414. It also gave a Fraction unfolded (M^pro; 25 mM, 25.5 °C) of -0.01034, a Fraction unfolded (M^pro; 25 mM, 26 °C) of 0.01683 and a Fraction unfolded (M^pro; 25 mM, 26.5 °C) of 0.04278. The Fraction unfolded (M^pro; 25 mM, 27 °C) was 0.07148, the Fraction unfolded (M^pro; 25 mM, 27.5 °C) was -0.01421 and the Fraction unfolded (M^pro; 25 mM, 28 °C) was -0.05389. It also gave a Fraction unfolded (M^pro; 25 mM, 28.5 °C) of -0.01968, a Fraction unfolded (M^pro; 25 mM, 29 °C) of 0.09885 and a Fraction unfolded (M^pro; 25 mM, 29.5 °C) of 0.01751. It also gave a Fraction unfolded (M^pro; 25 mM, 30 °C) of -0.01678, a Fraction unfolded (M^pro; 25 mM, 30.5 °C) of 0.01948 and a Fraction unfolded (M^pro; 25 mM, 31 °C) of 0.07312. For the same compound, the Fraction unfolded (M^pro; 25 mM, 31.5 °C) was 0.01304, the Fraction unfolded (M^pro; 25 mM, 32 °C) was 0.01813 and the Fraction unfolded (M^pro; 25 mM, 66.5 °C) was 1.064. It also gave a Fraction unfolded (M^pro; 25 mM, 67 °C) of 1.093, a Fraction unfolded (M^pro; 25 mM, 67.5 °C) of 1.004 and a Fraction unfolded (M^pro; 25 mM, 68 °C) of 1.064. The Fraction unfolded (M^pro; 25 mM, 68.5 °C) was 0.9281, the Fraction unfolded (M^pro; 25 mM, 69 °C) was 1.033 and the Fraction unfolded (M^pro; 25 mM, 69.5 °C) was 0.9909. For the same compound, the Fraction unfolded (M^pro; 25 mM, 70 °C) was 0.9575, the Fraction unfolded (M^pro; 25 mM, 70.5 °C) was 1.011 and the Fraction unfolded (M^pro; 25 mM, 71 °C) was 1.05. For the same compound, the Fraction unfolded (M^pro; 25 mM, 71.5 °C) was 1.061, the Fraction unfolded (M^pro; 25 mM, 72 °C) was 0.9314 and the Fraction unfolded (M^pro; 25 mM, 72.5 °C) was 1.024. The Fraction unfolded (M^pro; 25 mM, 73 °C) was 1.027, the Fraction unfolded (M^pro; 25 mM, 73.5 °C) was 1.08 and the Fraction unfolded (M^pro; 25 mM, 74 °C) was 1. It also gave a Fraction unfolded (M^pro; 25 mM, 74.5 °C) of 0.9793, a Fraction unfolded (M^pro; 25 mM, 75 °C) of 0.8934 and a Fraction unfolded (M^pro; 25 mM, 75.5 °C) of 0.9799. It also gave a Fraction unfolded (M^pro; 25 mM, 76 °C) of 1.027, a Fraction unfolded (M^pro; 25 mM, 76.5 °C) of 0.9678 and a Fraction unfolded (M^pro; 25 mM, 77 °C) of 0.9735. For the same compound, the Fraction unfolded (M^pro; 25 mM, 77.5 °C) was 0.9321, the Fraction unfolded (M^pro; 25 mM, 78 °C) was 1.0047 and the Fraction unfolded (M^pro; 25 mM, 78.5 °C) was 1.022. It also gave a Fraction unfolded (M^pro; 25 mM, 79 °C) of 0.9456, a Fraction unfolded (M^pro; 25 mM, 79.5 °C) of 1.012 and a Fraction unfolded (M^pro; 25 mM, 80 °C) of 0.9456. The Fraction unfolded (M^pro; 100 mM, 21.5 °C) was -0.02084, the Fraction unfolded (M^pro; 100 mM, 22 °C) was -0.00506 and the Fraction unfolded (M^pro; 100 mM, 22.5 °C) was 0.01094. It also gave a Fraction unfolded (M^pro; 100 mM, 23 °C) of 0.02167, a Fraction unfolded (M^pro; 100 mM, 23.5 °C) of -0.03337 and a Fraction unfolded (M^pro; 100 mM, 24 °C) of -0.04925. For the same compound, the Fraction unfolded (M^pro; 100 mM, 24.5 °C) was -0.01302, the Fraction unfolded (M^pro; 100 mM, 25 °C) was 0.0174 and the Fraction unfolded (M^pro; 100 mM, 25.5 °C) was 0.07455. For the same compound, the Fraction unfolded (M^pro; 100 mM, 26 °C) was -0.07318, the Fraction unfolded (M^pro; 100 mM, 26.5 °C) was 0.02179 and the Fraction unfolded (M^pro; 100 mM, 27 °C) was -0.00134. For the same compound, the Fraction unfolded (M^pro; 100 mM, 27.5 °C) was 0.02966, the Fraction unfolded (M^pro; 100 mM, 28 °C) was -0.07997 and the Fraction unfolded (M^pro; 100 mM, 28.5 °C) was -0.01931. For the same compound, the Fraction unfolded (M^pro; 100 mM, 29 °C) was 0.05111, the Fraction unfolded (M^pro; 100 mM, 29.5 °C) was 0.02685 and the Fraction unfolded (M^pro; 100 mM, 30 °C) was 0.06732. For the same compound, the Fraction unfolded (M^pro; 100 mM, 30.5 °C) was -0.02735, the Fraction unfolded (M^pro; 100 mM, 31 °C) was 0.01656 and the Fraction unfolded (M^pro; 100 mM, 31.5 °C) was -0.02084. It also gave a Fraction unfolded (M^pro; 100 mM, 32 °C) of -0.00506, a Fraction unfolded (M^pro; 100 mM, 66.5 °C) of 1.07 and a Fraction unfolded (M^pro; 100 mM, 67 °C) of 1.013. For the same compound, the Fraction unfolded (M^pro; 100 mM, 67.5 °C) was 0.9992, the Fraction unfolded (M^pro; 100 mM, 68 °C) was 1.02 and the Fraction unfolded (M^pro; 100 mM, 68.5 °C) was 1.071. For the same compound, the Fraction unfolded (M^pro; 100 mM, 69 °C) was 0.9861, the Fraction unfolded (M^pro; 100 mM, 69.5 °C) was 1.008 and the Fraction unfolded (M^pro; 100 mM, 70 °C) was 1.064. The Fraction unfolded (M^pro; 100 mM, 70.5 °C) was 0.8899, the Fraction unfolded (M^pro; 100 mM, 71 °C) was 1.057 and the Fraction unfolded (M^pro; 100 mM, 71.5 °C) was 1.048. The Fraction unfolded (M^pro; 100 mM, 72 °C) was 1.1085, the Fraction unfolded (M^pro; 100 mM, 72.5 °C) was 1.099 and the Fraction unfolded (M^pro; 100 mM, 73 °C) was 0.9672. It also gave a Fraction unfolded (M^pro; 100 mM, 73.5 °C) of 1.047, a Fraction unfolded (M^pro; 100 mM, 74 °C) of 0.9312 and a Fraction unfolded (M^pro; 100 mM, 74.5 °C) of 1.062. For the same compound, the Fraction unfolded (M^pro; 100 mM, 75 °C) was 1.063, the Fraction unfolded (M^pro; 100 mM, 75.5 °C) was 1.018 and the Fraction unfolded (M^pro; 100 mM, 76 °C) was 0.9202. It also gave a Fraction unfolded (M^pro; 100 mM, 76.5 °C) of 1.013, a Fraction unfolded (M^pro; 100 mM, 77 °C) of 0.9957 and a Fraction unfolded (M^pro; 100 mM, 77.5 °C) of 1.0714. The Fraction unfolded (M^pro; 100 mM, 78 °C) was 0.8845, the Fraction unfolded (M^pro; 100 mM, 78.5 °C) was 0.9237 and the Fraction unfolded (M^pro; 100 mM, 79 °C) was 1.0367. For the same compound, the Fraction unfolded (M^pro; 100 mM, 79.5 °C) was 0.9498, the Fraction unfolded (M^pro; 100 mM, 80 °C) was 0.9799 and the Ki (SARS-CoV-2 M^pro [4]) was 1.33 ± 0.05 µM.
